Values after ≈ are worked out from the molar mass of the structure shown. Structures can show the parent of a compound that is named as a salt. Where two headings read alike, the source gives them in different places.
Assays:
[1] = tested on: Staphylococcus aureus 209 P; test: In vitro antibacterial activity, MIC (standard strain); type: cell-based; conditions: 10^6 cells/ml, read-out: MIC
[2] = tested on: Streptococcus pyogenes S-8; test: as above; type: cell-based; conditions: S8, Streptococcus pyogenes S-8, 10^6 cells/ml
[3] = tested on: Escherichia coli NIHJ JC-2; test: as above; type: cell-based; conditions: NIHJJC2, Escherichia coli NIHJ JC-2, 10^6 cells/ml
[4] = tested on: Proteus vulgaris IFO 3167; test: as above; type: cell-based; conditions: Proteus vulgaris, IFO3167
[5] = tested on: P. morganii IID 602; test: as above; type: cell-based; conditions: Morganella morganii, IID602; P. morganii IID 602, 10^6 cells/ml, standard strain; read-out: MIC
[6] = tested on: Enterobacter cloacae IID 977; test: as above; type: cell-based; conditions: IID977, Enterobacter cloacae IID 977, 10^6 cells/ml
[7] = tested on: Serratia marcescens IID 618; test: as above; type: cell-based; conditions: IID618, Serratia marcescens IID 618, 10^6 cells/ml, read-out: MIC
[8] = tested on: Shigella sonnei IID 969; test: as above; type: cell-based; conditions: IID969, Shigella sonnei IID 969, 10^6 cells/ml
Description: (§1) The in vitro antibacterial activity has been investigated, the minimun inhibitory concentration (MIC) was determined in accordance with the method recommended by Japan Society of Chemotherapy.

[9] = tested on: Acinetobacter anitratus IID 876; test: as above; type: cell-based; conditions: Acinetobacter calcoaceticus, IID876; Acinetobacter anitratus IID 876, 10^6 cells/ml, standard strain; read-out: MIC
[10] = tested on: Alcaligenes faecalis 0114002; test: as above; type: cell-based; conditions: Alcaligenes faecalis 0114002, 10^6 cells/ml
[11] = tested on: B. distasonis 8503; test: as above; type: cell-based; conditions: Parabacteroides distasonis, B. distasonis 8503, 10^6 cells/ml
[12] = tested on: F. varium KYA (ATCC) 8501; test: as above; type: cell-based; conditions: Fusobacterium varium, F. varium KYA (ATCC) 8501, 10^6 cells/ml
[13] = tested on: C. perfringens KYA (ATCC) 13123; test: microbe, parasite or virus in culture; type: cell-based; conditions: Clostridium perfringens
[14] = tested on: Veillonella parvula KYA 10790; test: In vitro antibacterial activity, MIC (standard strain); type: cell-based; conditions: KYA10790, Veillonella parvula KYA 10790, 10^6 cells/ml
[15] = tested on: S. pneumoniae 15; test: In vitro antibacterial activity, MIC (clinical isolates); type: cell-based; conditions: Streptococcus pneumoniae; S. pneumoniae 15, 10^6 cells/ml, clinical isolate
[16] = tested on: S. pneumoniae 2054; test: as above; type: cell-based; conditions: Streptococcus pneumoniae; S. pneumoniae 2054, 10^6 cells/ml, clinical isolate
[17] = tested on: S. pneumoniae 2950; test: as above; type: cell-based; conditions: Streptococcus pneumoniae; S. pneumoniae 2950, 10^6 cells/ml, clinical isolate
[18] = tested on: S. pneumoniae 3227; test: as above; type: cell-based; conditions: Streptococcus pneumoniae; S. pneumoniae 3227, 10^6 cells/ml, clinical isolate
[19] = tested on: S. pyogenes 3102; test: as above; type: cell-based; conditions: Streptococcus pyogenes; S. pyogenes 3102, 10^6 cells/ml, clinical isolate
[20] = tested on: S. pyogenes 3107; test: as above; type: cell-based; conditions: Streptococcus pyogenes; S. pyogenes 3107, 10^6 cells/ml, clinical isolate
[21] = tested on: S. agalactiae 4394; test: as above; type: cell-based; conditions: Streptococcus agalactiae; S. agalactiae 4394, 10^6 cells/ml, clinical isolate
[22] = tested on: S. agalactiae 4468; test: as above; type: cell-based; conditions: Streptococcus agalactiae; S. agalactiae 4468, 10^6 cells/ml, clinical isolate
[23] = tested on: E. coli ML4707; test: MIC against the infecting strain (Table 2); type: cell-based; conditions: Escherichia coli; E. coli ML4707 (Table 2, parts 1 and 2)
Description: as §1

[24] = tested on: E. coli ML4707; test: In vivo antibacterial activity against systemic infection in mice;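 note: ED50 in mg/kg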; conditions: Escherichia coli, ML4707, po, 1 h, E. coli ML4707, mice (ICR-S), intraperitoneal infection, oral at 1 hour after infection, read-out: ED50
Description: (§2) Experiment 2 In vivo antibacterial activity against systemic infection in mice (ICR-S)
(§3) The infections were produced by intraperitoneal infection of a suspension of the bacterial culture corresponding to the germ studied. The product was administered orally at 1 hour after the infection. The 50% effective dose (ED50) which protects 50% of the animals from death caused by the infection was determined from the relation between dosage and survival rate.

[25] = tested on: Propionibacterium acens 11828; test: In vitro antibacterial activity, MIC (standard strain); type: cell-based; conditions: Propionibacterium acens 11828, 10^6 cells/ml
[26] = tested on: Peptococcus magnus KY 017; test: as above; type: cell-based; conditions: Finegoldia magna, KY017, Peptococcus magnus KY 017, 10^6 cells/ml
[27] = tested on: C. ramosum; test: as above; type: cell-based; conditions: Thomasclavelia ramosa; C. ramosum, 10^6 cells/ml, standard strain; read-out: MIC
[28] = tested on: P. aeruginosa IID 1210; test: MIC against the infecting strain (Table 2); type: cell-based; conditions: Pseudomonas aeruginosa, IID1210; P. aeruginosa IID 1210 (Table 2, part 3)
[29] = tested on: S. aureus Smith; test: MIC against the infecting strain (Table 2); type: cell-based; conditions: Staphylococcus aureus; S. aureus Smith (Table 2, part 5)
[30] = tested on: P. aeruginosa IID 1210; test: In vivo antibacterial activity against systemic infection in mice;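 note: ED50 in mg/kg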; parameters: species or system mice (ICR-S); conditions: Pseudomonas aeruginosa, IID1210; P. aeruginosa IID 1210, mice (ICR-S), intraperitoneal infection, oral at 1 hour after infection, challenge dose 2.5 x 10^5 cfu/mouse; read-out: ED50
Description: as §2, §3

[31] = tested on: S. aureus Smith; test: as above; parameters: species or system mice (ICR-S); conditions: Staphylococcus aureus; S. aureus Smith, mice (ICR-S), intraperitoneal infection, oral at 1 hour after infection, challenge dose 3.5 x 10^5 cfu/mouse; read-out: ED50
Description: as §2, §3

[32] = challenge dose 8.3 x 10^6 cfu/mouse (part 2)
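Throughout, for ED50: ED50 in mg/kg.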

Compound	MIC [1] [µg/mL]	MIC [2] [µg/mL]	MIC [3] [µg/mL]	MIC [4] [µg/mL]	MIC [5] [µg/mL]	MIC [6] [µg/mL]	MIC [7] [µg/mL]	MIC [8] [µg/mL]	MIC [9] [µg/mL]	MIC [10] [µg/mL]	MIC [12] [µg/mL]	MIC [13] [µg/mL]	MIC [14] [µg/mL]	MIC [15] [µg/mL]	MIC [16] [µg/mL]	MIC [17] [µg/mL]	MIC [18] [µg/mL]	MIC [19] [µg/mL]	MIC [20] [µg/mL]	MIC [21] [µg/mL]	further results
CC1CN(c2c(F)cc3c(=O)c(C(=O)O)cn(C4CC4)c3c2F)CCN1 (stereo not drawn) [Example 2, l-Cyclopropyl-6,8-difluoro-l,4-dihydro-7-(3-methyl-l-piperazinyl)-4-oxoquinoline-3-carboxylic acid]	0.2 (≈ 0.55 µM)	0.78 (≈ 2.15 µM)	≤ 0.006	0.0125 (≈ 0.0344 µM)	0.05 (≈ 0.138 µM)	0.05 (≈ 0.138 µM)	0.05 (≈ 0.138 µM)	0.0125 (≈ 0.0344 µM)	0.006 (≈ 0.0165 µM)	0.2 (≈ 0.55 µM)	6.25 (≈ 17.2 µM)	0.78 (≈ 2.15 µM)	0.2 (≈ 0.55 µM)	0.78 (≈ 2.15 µM)	1.56 (≈ 4.29 µM)	1.56 (≈ 4.29 µM)	1.56 (≈ 4.29 µM)	0.78 (≈ 2.15 µM)	0.78 (≈ 2.15 µM)	1.56 (≈ 4.29 µM)	MIC [11]: 1.56 µg/mL (≈ 4.29 µM); MIC [22]: 0.78 µg/mL (≈ 2.15 µM); MIC [23]: 0.0125 µg/mL (≈ 0.0344 µM); ED50 ([24]; challenge dose 6.0 x 10^6 cfu/mouse (part 1)): 0.09 mg/kg; ED50 [24, 32]: 0.17 mg/kg
CC1CN(c2c(F)cc3c(=O)c(C(=O)O)cn(C4CC4)c3c2Cl)CCN1 (stereo not drawn) [Example 5, 8-Chloro-l-cyclopropyl-6-fluoro-1,4-dihydro-7-(3-methyl-1-piperazinyl)-4-oxoquinoline-3-carboxylic acid hydrochloride]	0.1	0.39	≤ 0.006	0.0125	0.1	0.05	0.05	0.0125	0.05	0.39	3.13	0.78	0.2	0.78	0.78	0.78	0.78	0.39	0.39	0.78	MIC [25]: 0.39 µg/mL; MIC [26]: 0.1 µg/mL; MIC [27]: 3.13 µg/mL; MIC [22]: 0.39 µg/mL; MIC [23]: 0.0125 µg/mL; MIC [28]: 0.78 µg/mL; MIC [29]: 0.1 µg/mL; ED50 [24, 32]: 0.12 mg/kg; ED50 [30]: 3.2 mg/kg; ED50 [31]: 0.89 mg/kg

Source: EP0178388A1, “Quinolinecarboxylic acid derivatives” (KYORIN PHARMACEUTICAL CO., LTD., priority 1984, dated 1986)
